Data from PubChem BioAssay AID624326 (Sanford-Burnham Center for Chemical Genomics, 2012).
Activity calls are given as the source filed them.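 The calls were made as follows: active = half-inhibitory concentration against fatty acid synthase thioesterase at or below 20 µM; inactive = the rest.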

Molecular target: Fatty acid synthase (Homo sapiens) (UniProt P49327)
Assay: inhibition of human FAS-TE enzyme activity – biochemical, kinetic fluorescence intensity, dose response (AID 624326)
Conditions: recombinant FAS-TE, OMFH fluorogenic substrate

Fatty acid synthase (Homo sapiens), sequence (P49327 whole entry, looked up): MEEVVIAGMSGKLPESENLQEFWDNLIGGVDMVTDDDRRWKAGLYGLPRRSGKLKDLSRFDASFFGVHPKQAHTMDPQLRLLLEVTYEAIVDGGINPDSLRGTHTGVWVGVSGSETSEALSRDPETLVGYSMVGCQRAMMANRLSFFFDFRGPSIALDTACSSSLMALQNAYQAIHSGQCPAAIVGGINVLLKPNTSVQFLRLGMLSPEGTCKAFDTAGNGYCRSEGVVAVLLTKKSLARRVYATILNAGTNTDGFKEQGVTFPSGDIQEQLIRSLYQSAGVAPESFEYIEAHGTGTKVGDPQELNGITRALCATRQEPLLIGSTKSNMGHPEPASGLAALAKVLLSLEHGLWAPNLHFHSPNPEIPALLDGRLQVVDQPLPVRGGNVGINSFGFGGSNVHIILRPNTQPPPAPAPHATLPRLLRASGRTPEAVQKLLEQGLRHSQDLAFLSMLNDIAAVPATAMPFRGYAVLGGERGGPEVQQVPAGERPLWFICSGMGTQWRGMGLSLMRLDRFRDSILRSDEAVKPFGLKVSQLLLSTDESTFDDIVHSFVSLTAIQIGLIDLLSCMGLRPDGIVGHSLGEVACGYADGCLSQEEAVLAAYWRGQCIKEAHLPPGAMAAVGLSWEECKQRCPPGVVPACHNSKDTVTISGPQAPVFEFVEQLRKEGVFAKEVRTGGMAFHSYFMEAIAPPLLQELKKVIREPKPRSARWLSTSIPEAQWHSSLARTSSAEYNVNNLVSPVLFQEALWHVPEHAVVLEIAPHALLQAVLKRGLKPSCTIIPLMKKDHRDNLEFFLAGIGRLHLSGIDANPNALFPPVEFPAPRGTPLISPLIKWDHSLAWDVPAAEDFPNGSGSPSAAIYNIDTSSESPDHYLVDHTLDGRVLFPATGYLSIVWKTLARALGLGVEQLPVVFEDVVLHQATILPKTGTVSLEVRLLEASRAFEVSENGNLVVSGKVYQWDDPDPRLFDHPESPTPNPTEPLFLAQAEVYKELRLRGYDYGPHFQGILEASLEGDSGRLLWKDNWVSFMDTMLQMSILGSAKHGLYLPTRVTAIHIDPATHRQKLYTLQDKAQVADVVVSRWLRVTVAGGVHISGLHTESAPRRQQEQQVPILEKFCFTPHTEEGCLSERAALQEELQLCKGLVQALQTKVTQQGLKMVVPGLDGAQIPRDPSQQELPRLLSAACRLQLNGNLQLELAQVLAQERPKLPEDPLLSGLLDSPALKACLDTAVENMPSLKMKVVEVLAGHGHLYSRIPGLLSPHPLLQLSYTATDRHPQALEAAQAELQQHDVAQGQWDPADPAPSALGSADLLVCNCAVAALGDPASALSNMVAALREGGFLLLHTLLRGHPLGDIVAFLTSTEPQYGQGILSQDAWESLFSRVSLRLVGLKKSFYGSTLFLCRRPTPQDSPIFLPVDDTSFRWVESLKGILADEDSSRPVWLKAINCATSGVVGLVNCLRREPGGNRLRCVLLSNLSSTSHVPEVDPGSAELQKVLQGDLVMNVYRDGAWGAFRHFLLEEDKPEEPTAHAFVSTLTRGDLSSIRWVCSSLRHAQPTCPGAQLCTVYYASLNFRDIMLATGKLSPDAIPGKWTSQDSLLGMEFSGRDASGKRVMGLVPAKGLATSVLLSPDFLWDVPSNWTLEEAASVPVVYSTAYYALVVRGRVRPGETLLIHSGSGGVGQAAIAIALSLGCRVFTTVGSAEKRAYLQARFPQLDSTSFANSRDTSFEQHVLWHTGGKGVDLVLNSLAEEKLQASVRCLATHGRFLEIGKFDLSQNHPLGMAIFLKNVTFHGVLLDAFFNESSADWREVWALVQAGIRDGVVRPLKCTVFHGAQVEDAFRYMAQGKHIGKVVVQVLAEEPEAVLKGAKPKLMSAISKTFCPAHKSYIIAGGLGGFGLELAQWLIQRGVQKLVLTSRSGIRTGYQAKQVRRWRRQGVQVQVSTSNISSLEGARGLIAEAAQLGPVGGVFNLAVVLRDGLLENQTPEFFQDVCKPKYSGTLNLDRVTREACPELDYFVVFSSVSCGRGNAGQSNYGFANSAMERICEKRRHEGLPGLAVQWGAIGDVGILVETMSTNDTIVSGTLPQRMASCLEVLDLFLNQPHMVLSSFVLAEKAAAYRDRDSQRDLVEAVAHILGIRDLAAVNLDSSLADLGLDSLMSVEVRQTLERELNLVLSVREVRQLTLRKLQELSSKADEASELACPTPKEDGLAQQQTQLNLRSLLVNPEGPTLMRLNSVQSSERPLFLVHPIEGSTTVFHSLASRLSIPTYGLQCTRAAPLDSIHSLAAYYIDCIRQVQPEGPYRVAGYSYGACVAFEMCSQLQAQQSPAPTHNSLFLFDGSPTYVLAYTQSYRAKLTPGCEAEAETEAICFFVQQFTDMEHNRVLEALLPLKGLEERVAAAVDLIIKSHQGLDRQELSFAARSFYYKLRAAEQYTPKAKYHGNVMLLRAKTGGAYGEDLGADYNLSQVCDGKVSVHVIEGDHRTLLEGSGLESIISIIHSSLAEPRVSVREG

IC50	SMILES
206 nM	CCCCC(=O)Nc1nc(-c2ccc(S(=O)(=O)N3CCOCC3)cc2)cs1
inactive	CCC(C)(C)C1CCC(=NNS(=O)(=O)c2ccc(C)c([N+](=O)[O-])c2)CC1 (configuration not stated)
